Key:
[1] = test system: phosphorylated Smad 1/5/8; assay: Western blot for phosphorylated Smad 1/5/8; assay type: cell-based; conditions: for level of phosphorylated Smad 1/5/8 expression: lung cancer cell lines (H1299, A549)
Description: (§1) Western Blot Analysis. Total cellular protein was prepared using RIPA buffer containing a protease inhibitor cocktail and protein concentration was measured using the BCA assay as described. In brief, protein was analyzed by SDS-PAGE, transferred to nitrocellulose (Schleicher and Schuell, Keene, N.H.). After blocking, the blots were incubated overnight at 4° C. with the appropriate primary antibody in Tris-buffered saline with 1% Tween (TBST) and 5% non-fat milk. Secondary antibodies were applied for 1 hour at room temperature. Specific proteins were detected using the enhanced chemiluminescence system (Amersham, Arlington Heights, Ill.). The primary antibodies that were used were rabbit monoclonal anti-pSmad 1/5/8 (Cell signaling Technology, Danvers Mass.) rabbit anti-actin, an affinity isolated antigen specific antibody (Sigma, Saint Louis, Mo.), rabbit monoclonal anti-Id1 and rabbit monoclonal anti-Id3 (Calbioreagents, San Mateo, Calif.).

alk2 = target: T1, alk2 (Mus musculus, UniProt P37172); conditions: reported [26]; cited from earlier work
T1 construct: host or cells: C2C12
T1 sequence (P37172 21-509): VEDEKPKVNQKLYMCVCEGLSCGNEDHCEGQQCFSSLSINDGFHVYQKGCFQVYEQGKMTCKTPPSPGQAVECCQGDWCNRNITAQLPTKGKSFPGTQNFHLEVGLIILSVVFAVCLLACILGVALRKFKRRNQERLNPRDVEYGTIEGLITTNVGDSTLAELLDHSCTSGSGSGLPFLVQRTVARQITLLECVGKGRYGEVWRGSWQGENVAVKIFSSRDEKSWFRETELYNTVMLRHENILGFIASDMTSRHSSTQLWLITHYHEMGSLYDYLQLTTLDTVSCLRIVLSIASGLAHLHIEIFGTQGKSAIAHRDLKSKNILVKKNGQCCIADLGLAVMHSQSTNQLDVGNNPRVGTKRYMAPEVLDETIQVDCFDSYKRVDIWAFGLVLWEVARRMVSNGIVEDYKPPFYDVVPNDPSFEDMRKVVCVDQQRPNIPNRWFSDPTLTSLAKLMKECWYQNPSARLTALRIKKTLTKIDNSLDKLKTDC

TGFβ receptor alk5 = target: T2, TGFβ receptor alk5 (Homo sapiens, UniProt P36897); conditions: compared with Dorsomorphin and LDN; cited from earlier work
T2 sequence (P36897 34-503): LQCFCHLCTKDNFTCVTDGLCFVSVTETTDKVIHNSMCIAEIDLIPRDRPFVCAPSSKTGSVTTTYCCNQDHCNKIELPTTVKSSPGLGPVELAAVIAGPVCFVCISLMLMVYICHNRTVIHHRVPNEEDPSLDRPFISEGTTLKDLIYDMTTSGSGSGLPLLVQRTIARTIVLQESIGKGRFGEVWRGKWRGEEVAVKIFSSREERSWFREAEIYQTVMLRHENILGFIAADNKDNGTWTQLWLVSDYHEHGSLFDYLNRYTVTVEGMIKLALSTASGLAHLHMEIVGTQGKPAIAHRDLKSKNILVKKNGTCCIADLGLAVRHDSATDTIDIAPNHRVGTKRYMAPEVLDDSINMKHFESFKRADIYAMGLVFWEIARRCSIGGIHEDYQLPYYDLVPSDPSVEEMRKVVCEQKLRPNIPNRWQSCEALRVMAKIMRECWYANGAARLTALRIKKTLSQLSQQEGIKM

A549 cells [2] = assay: Ethidium bromide uptake cell death assay; assay type: cell-based; conditions: 48 hours, 10 μM Dorsomorphin or 1 μM selective antagonist
Description: Cell Death Assay: A549 and H1299 cells were plated in 6 well plates with 10^6 cells per well. Cells were treated with DMSO or a BMP receptor antagonist for 12 and 48 hours. Adherent and floating cells were harvested and incubated with 0.1 mg/ml of ethidium bromide. Immediately after staining approximately 100 cells were counted and the percentage of cells that took up ethidium bromide was determined.

Smad 1/5/8 activity = assay: BRE-luciferase reporter assay; assay type: cell-based; conditions: H1299 cells; 10 μM Dorsomorphin or 1 μM DMH1, DMH2, LDN; 48 hours; vs DMSO
Description: Luciferase Assays. 10^6 H1299 cells were transfected with 2 μg of BRE-luciferace plasmid using a Nucleofector II. […] Cells were lysed with luciferase lysis buffer (Promega). Samples were added to luciferase assay substrate (Promega) and luminsescence measured by the TD-20/20 Luminometer (Turner Designs/Turner BioSystems, Sunnyvale, Calif.). Control samples included luciferase assay substrate alone and luciferase assay substrate plus 1× reporter lysis buffer.

[3] = test system: constitutively active alk6 (ca-alk6); assay: BRE-luciferase with constitutively active alk6 in H1299 cells; assay type: cell-based; conditions: 1 μM antagonist
Description: (§2) To assess the effects of antagonists on a specific type I BMP receptor, 2 μg of constitutively active ca-alk3 and ca-alk6 expression vectors were co-transfected with the BRE-luciferase reporter into H1299 cells with Nucleofector II. Control cells were co-transfected with the pcDNA3 expression vector. After 48 hours the cells were treated with DMSO or a BMP receptor antagonist for 48 hours and luminescence was measured.

AMP kinase = conditions: compared with Dorsomorphin and LDN; cited from earlier work
VEGF II = VEGF II (Homo sapiens, UniProt P35968); conditions: compared with Dorsomorphin and LDN; cited from earlier work
A549 cells [4] = assay: Soft agar assay (anchorage independent growth); assay type: cell-based; conditions: A549 in soft agar; 1 μM; 2 weeks
Description: (§3) Soft Agar Assay. A 1% agar mixture was prepared in sterile double-distilled water, microwaved, and cooled to 40° C. in a water bath. DMEM was also incubated at 40° C. Equal amounts of each were mixed and 1 ml added to each well of a six well plate. The base agar was allowed to solidify. A 0.7% agar mixture was prepared then cooled to 40° degrees. Cells were trypsinized and counted. Cells (2500 cells per well) were placed in pre-warmed DMEM containing DMSO or DMH1 […]. The treated cells were then mixed with the 0.7% agar and 2 ml placed on top of the base agar. Once solidified, 1 ml of DMEM was placed on top of the agar. […]

H1299 cells [5] = assay: Soft agar assay (anchorage independent growth); assay type: cell-based; conditions: H1299 in soft agar; 1 μM; 2 weeks
Description: as §3

alk6 = target: T3, alk6 (Mus musculus, UniProt P36898); conditions: reported [26]; cited from earlier work
T3 construct: host or cells: C2C12

[6] = target: T4, constitutively active alk3 (ca-alk3) (Homo sapiens, UniProt P36894, Q233D); assay: BRE-luciferase with constitutively active alk3 in H1299 cells; assay type: cell-based; conditions: 1 μM antagonist
T4 construct: expressed in transfected cells; host or cells: H1299
Description: as §2

Id1 and Id3 protein = assay: Western blot for Id1 and Id3; assay type: cell-based; conditions: for protein levels of Id1 and Id3: A549 and H1299 cells
Description: as §1

[7] = test system: Id1, Id2, and Id3 expression; assay: Quantitative RT-PCR for Id family members; assay type: cell-based; conditions: A549 and H1299 cell lines; 10 μM Dorsomorphin, 1 μM DMH1 or DMH2; 48 hours
Description: Quantification of Gene Expression. RNA was extracted using the RNeasy kit as per the manufacturer's instructions (Qiagen, Valencia, Calif.). DNAase was used to remove any DNA contamination. cDNA was generated using Advantage RT for PCR kit (BD BiosciencesClontech, Palo Alto, Calif.). Quantitative PCR was performed with the Stratagene Mx3005p (Agilent Technologies) and predesigned validated Taq-Man gene expression assays according to the manufacturer's specifications (Applied Biosystems, Foster City, Calif.). Reference numbers used are: GAPDH (Hs99999905_m1), ACVRL1 (alk1) (Hs00163543_m1), ACVR1A (alk2) (Hs00153836_m1), BMR1A (alk3) (Hs00831730_s1), BMPR1B (alk6) (Hs00176144_m1), Id1 (Hs00357821_g1), Id2 (Hs00747379_m1), and Id3 (Hs00171409-m1). Negative control included all reagents except cDNA. Expression was normalized to GAPDH using the formula […].

alk3 = target: T5, alk3 (Mus musculus, UniProt P36895); conditions: reported [26]; cited from earlier work
T5 construct: host or cells: C2C12

[8] = target: platelet-derived growth factor receptor-β (Homo sapiens, UniProt P09619); conditions: compared with Dorsomorphin and LDN; cited from earlier work
A549 cells [9] = assay: Cell counts after 7 days; assay type: cell-based; conditions: DMEM 5% FCS, 10 μM Dorsomorphin or 1 μM DMH1, DMH2, LDN
Description: (§4) Cell Counts. A549 and H1299 cells were plated into 6 well plates with 100,000 cells per well. Cells were treated with DMSO or a BMP receptor antagonist for 7 days. The cells were detached with trypsin, stained with trypan blue, and the number of live cells counted using a hemacytometer.

H1299 cells [10] = assay: Cell counts after 7 days; assay type: cell-based; conditions: H1299, DMEM 5% FCS, 10 μM Dorsomorphin or 1 μM DMH1, DMH2, LDN
Description: as §4

A549 cells [11] = assay: Clonogenic growth assay; assay type: cell-based; conditions: 1 μM, 2 weeks
Description: (§5) Clonigenic Growth Assay. A549 and H1299 cells were plated into 6 well plates with 500 cells per well. The next day the cells were treated with DMSO or a BMP receptor antagonist for 2 weeks. The colonies were stained with Diff-Quick (IMEB Inc. San Marcos, Calif.) and the total number of colonies per well counted.

H1299 cells [12] = assay: Clonogenic growth assay; assay type: cell-based; conditions: 1 μM, 2 weeks
Description: as §5

T5 sequence (P36895 24-532): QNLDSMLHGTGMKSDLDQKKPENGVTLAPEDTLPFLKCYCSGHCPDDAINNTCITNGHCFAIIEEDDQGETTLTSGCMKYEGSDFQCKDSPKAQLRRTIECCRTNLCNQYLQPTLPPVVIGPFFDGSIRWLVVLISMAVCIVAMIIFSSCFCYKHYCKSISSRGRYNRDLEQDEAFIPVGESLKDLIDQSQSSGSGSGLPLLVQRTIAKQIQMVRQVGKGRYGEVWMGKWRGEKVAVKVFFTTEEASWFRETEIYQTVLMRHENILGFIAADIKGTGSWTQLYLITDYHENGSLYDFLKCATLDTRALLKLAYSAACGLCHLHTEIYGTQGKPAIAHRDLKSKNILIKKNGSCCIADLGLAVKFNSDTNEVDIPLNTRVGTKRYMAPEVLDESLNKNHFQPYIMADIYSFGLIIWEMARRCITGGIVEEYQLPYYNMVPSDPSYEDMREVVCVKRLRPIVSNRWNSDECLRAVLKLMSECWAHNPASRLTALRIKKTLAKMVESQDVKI
T3 sequence (P36898 14-502): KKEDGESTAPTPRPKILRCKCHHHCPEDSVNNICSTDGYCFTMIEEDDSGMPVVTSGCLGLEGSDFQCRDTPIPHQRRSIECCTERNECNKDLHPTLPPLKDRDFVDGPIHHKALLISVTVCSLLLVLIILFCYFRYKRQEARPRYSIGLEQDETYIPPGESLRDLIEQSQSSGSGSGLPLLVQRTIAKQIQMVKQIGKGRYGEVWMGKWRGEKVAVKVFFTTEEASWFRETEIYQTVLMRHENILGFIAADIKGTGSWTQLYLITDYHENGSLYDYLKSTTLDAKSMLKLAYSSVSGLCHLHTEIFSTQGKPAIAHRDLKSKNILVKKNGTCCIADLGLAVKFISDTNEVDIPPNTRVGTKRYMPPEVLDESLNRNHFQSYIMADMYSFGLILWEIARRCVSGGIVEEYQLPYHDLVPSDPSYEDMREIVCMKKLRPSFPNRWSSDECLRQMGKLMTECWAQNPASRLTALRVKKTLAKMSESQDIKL
platelet-derived growth factor receptor-β, sequence (P09619 33-1106, species assumed): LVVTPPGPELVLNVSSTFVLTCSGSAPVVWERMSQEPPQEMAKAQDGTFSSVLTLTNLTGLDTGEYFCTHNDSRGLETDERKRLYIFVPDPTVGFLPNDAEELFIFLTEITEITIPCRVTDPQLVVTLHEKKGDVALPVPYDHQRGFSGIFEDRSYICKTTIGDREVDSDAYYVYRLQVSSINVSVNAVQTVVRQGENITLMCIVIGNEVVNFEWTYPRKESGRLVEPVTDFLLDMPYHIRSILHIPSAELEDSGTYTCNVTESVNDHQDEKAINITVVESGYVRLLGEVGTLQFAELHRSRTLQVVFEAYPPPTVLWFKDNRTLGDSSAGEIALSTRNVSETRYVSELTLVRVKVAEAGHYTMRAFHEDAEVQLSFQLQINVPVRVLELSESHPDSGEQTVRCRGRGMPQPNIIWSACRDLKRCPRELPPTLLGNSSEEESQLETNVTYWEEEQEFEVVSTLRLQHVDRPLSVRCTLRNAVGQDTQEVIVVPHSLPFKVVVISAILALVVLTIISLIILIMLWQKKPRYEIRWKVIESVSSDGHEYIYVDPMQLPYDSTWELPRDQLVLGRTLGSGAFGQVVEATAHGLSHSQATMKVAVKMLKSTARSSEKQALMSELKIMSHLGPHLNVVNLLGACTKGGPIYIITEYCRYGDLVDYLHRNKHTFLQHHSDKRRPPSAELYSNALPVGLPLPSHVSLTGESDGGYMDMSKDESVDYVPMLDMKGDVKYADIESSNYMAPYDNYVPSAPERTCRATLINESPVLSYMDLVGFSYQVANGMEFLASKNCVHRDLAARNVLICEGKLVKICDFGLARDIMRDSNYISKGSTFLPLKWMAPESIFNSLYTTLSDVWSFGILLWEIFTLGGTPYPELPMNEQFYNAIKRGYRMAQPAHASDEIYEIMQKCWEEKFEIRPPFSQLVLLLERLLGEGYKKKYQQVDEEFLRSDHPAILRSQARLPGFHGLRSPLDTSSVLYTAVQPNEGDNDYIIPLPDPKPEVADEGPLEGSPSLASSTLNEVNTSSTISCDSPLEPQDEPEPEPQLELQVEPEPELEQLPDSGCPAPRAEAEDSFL
VEGF II, sequence (P35968 20-1356): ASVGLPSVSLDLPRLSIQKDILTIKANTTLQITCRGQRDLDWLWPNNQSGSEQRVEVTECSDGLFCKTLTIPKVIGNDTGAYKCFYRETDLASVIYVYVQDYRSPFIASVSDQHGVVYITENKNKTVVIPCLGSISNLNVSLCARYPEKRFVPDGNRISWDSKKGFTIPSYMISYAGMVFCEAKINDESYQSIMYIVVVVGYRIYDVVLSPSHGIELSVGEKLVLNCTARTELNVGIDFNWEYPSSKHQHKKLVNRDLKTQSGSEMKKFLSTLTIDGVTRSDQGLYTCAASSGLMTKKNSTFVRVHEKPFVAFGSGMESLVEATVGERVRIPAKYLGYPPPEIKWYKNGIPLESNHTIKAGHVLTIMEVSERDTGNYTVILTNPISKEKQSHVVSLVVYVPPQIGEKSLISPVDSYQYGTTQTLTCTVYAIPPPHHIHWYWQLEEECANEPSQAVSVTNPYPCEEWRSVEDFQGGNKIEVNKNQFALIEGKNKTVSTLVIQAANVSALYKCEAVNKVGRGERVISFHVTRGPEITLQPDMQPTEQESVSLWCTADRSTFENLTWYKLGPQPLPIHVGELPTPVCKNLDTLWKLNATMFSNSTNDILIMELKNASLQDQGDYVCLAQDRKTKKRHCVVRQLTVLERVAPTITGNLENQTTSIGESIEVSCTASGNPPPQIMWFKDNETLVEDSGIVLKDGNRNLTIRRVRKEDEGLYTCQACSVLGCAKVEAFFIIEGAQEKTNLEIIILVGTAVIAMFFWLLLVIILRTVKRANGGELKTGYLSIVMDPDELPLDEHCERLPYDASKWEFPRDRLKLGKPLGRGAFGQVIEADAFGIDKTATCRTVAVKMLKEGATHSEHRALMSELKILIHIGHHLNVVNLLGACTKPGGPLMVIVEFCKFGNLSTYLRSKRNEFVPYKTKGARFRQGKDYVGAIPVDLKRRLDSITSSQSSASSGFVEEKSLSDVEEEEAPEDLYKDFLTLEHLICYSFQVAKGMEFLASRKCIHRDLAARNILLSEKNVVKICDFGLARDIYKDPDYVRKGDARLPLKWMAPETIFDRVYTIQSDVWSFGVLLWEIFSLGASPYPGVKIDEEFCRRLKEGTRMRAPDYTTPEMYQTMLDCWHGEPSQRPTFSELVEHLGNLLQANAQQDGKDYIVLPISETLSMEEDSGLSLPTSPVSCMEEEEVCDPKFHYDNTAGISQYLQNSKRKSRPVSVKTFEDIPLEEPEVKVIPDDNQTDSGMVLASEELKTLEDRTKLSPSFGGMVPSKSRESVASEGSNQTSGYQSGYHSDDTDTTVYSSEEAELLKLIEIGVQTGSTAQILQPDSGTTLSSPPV
T4 sequence (P36894 24-532 Q233D): as the sequence (P36895 24-532) above, with L16S, P21S, T74A, V133L, V142I, G164R, Q210D, I373V counted along it

Compound	level of phosphorylated Smad 1/5/8 expression [1]	inhibition of alk2 activity (alk2)	Smad 1/5/8 activity (BRE-luciferase activity) (Smad 1/5/8 activity)	inhibition of ca-alk6 activity (BRE-luciferase) [3]	activity for AMP kinase (comparison) (AMP kinase)	inhibition of alk6 activity (alk6)	protein levels of Id1 and Id3 (Id1 and Id3 protein)	inhibition of alk3 activity (alk3)	further results
CC(C)Oc1ccc(-c2cnc3c(-c4ccnc5ccccc45)cnn3c2)cc1 [DMH1]	decreased	inhibited	significant decrease	partially inhibited alk6 but not as effectively as DMH2	less activity	negligible inhibitory effects	decrease	inhibited	activity for TGFβ receptor alk5 (comparison) (TGFβ receptor alk5): less activity; cell death (percentage of cells taking up ethidium bromide) (A549 cells [2]): significant increase in cell death; activity for VEGF II (comparison) (VEGF II): less activity; anchorage independent growth (A549 cells [4]): significantly reduced; anchorage independent growth (H1299 cells [5]): significantly reduced; inhibition of ca-alk3 activity (BRE-luciferase) [6]: significant inhibition; reduction of Id1 protein expression (comparison) (Id1 and Id3 protein; H1299 and A549 cells, 1 μM): greater reduction of Id1 in H1299 cells compared to A549 cells; Id1, Id2, and Id3 expression (mRNA) [7]: significantly decreased; activity for platelet-derived growth factor receptor-β (comparison) [8]: less activity
c1ccc2c(-c3cnn4cc(-c5ccc(N6CCNCC6)cc5)cnc34)ccnc2c1 [LDN, LDN-193189, reference compound]	decreased	effectively inhibits	significant decrease	very similar to that of DMH2	less AMP kinse activity than Dorsomorphin	effectively inhibits	decrease	effectively inhibits	phosphorylated Smad 1/5/8 expression ([1]; A549 cells): decrease; cell growth (number of cells) (A549 cells [9]): more growth inhibition than DMH1; cell growth (number of cells) (H1299 cells [10]): more growth inhibition than DMH1; clonogenic growth (A549 cells [11]): inhibited more by DMH2 and LDN than DMH1; clonogenic growth (H1299 cells [12]): inhibited more by DMH2 and LDN than DMH1
